Data set [1] addresses T1, Human CYP2D6 Supersomes (Homo sapiens, UniProt P10635).
T1 construct: purchased Corning Gentest
The data set is described as follows: Metabolic stability in Human CYP2D6 Supersomes. The data set is classed as in vitro ADME. Particulars: Table 4a; for t1/2 (minutes) Experiment 2 / t1/2 (minutes) Experiment 1: 5 pmol/mL CYP2D6 supersomes, 0.25 μM test compound, 2 mM NADPH, 37° C.; for t1/2 (minutes) Experiment 1: parent remaining by LC-MS/MS; for t1/2 (minutes) Ave ± SD: average of Experiments 1 and 2. The method, then:
(§1) Evaluation of Metabolic Stability in Human CYP2D6 Supersomes™
(§2) Materials: CYP2D6 Supersomes™ were obtained from Corning Gentest. β-nicotinamide adenine dinucleotide phosphate, reduced form (NADPH), magnesium chloride (MgCl2), and dimethyl sulfoxide (DMSO) were purchased from Sigma-Aldrich. D-Eliglustat compounds were supplied by Concert Pharmaceuticals.
(§3) Determination of Metabolic Stability: 10 mM stock solutions of test compounds were prepared in DMSO. […] The CYP2D6 supersomes were diluted to 5 pmol/mL in 0.1 M potassium phosphate buffer, pH 7.4, containing 3 mM MgCl2. The diluted supersomes were added to wells of a 96-well deep-well polypropylene plate in triplicate. […] Reactions were initiated by addition of pre-warmed NADPH solution. The final reaction volume was 0.5 mL and contained 5 pmol/mL CYP2D6 supersomes, 0.25 μM test compound, and 2 mM NADPH in 0.1 M potassium phosphate buffer, pH 7.4, and 3 mM MgCl2. The reaction mixtures were incubated at 37° C. and 50 μL aliquots were removed at 0, 5, 10, 20, and 30 minutes and added to shallow-well 96-well plates which contained 50 μL of ice-cold ACN with internal standard to stop the reactions. The plates were stored at 4° C. for 20 minutes after which 100 μL of water was added to the wells of the plate before centrifugation to pellet precipitated proteins. Supernatants were transferred to another 96-well plate and analyzed for amounts of parent remaining by LC-MS/MS using an Applied Bio-systems mass spectrometer.
(§4) Data analysis: The in vitro t1/2s for test compounds were calculated from the slopes of the linear regression of % parent remaining (ln) vs incubation time relationship.
(§5) k=−[slope of linear regression of % parent remaining (ln) vs incubation time]
(§6) Data analysis was performed using Microsoft Excel Software.

Data set [2] concerns the target T2, CYP2D6 (Homo sapiens, UniProt P10635).
T2 construct: purchased Corning Gentest
The data set is described as follows: Metabolic stability in Human CYP2D6 Supersomes. Type of data set: in vitro ADME. Particulars: human, recombinant human CYP2D6 Supersomes. As to the method:
as §1, §2, §3, §4, §5, §6

Like-named read-outs stand apart in the source and are kept apart here.

We go through three molecules from US9783528B2, “Inhibitors of the enzyme UDP-glucose: N-acyl-sphingosine glucosyltransferase” (Concert Pharmaceuticals, Inc., priority 2013, dated 2017).

T1 sequence (P10635 whole entry): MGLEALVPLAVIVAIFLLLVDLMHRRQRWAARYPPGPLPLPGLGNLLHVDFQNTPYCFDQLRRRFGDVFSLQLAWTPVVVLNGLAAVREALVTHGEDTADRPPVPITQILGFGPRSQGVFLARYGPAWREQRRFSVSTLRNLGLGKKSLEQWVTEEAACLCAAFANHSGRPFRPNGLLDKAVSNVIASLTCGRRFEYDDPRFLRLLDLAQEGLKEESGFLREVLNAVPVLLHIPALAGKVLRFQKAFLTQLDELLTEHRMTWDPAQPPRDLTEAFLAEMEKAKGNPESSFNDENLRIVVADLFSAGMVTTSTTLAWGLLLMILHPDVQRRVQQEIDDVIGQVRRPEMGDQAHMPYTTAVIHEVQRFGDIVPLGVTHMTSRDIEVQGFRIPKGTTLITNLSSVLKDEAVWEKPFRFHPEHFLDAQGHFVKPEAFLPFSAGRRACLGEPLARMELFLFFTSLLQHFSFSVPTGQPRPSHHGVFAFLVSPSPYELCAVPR
T2 sequence (P10635 whole entry): as above

For the molecule “N-((1R,2R)-1-(2,3-Dihydrobenzo[b][1,4]dioxin-6-yl-2,2,3,3-d4)-1-hydroxy-3-(pyrrolidin-1-yl-d8)propan-2-yl)octanamide hemi-L-tartaric acid salt [Compound 118]”, in data set [1], the “t1/2 (minutes) Experiment 2” value was determined as 5.9 min, the “t1/2 (minutes) Experiment 1” value amounted to 5.6 min and the “t1/2 (minutes) Ave ± SD” value is 5.8 ± 0.2 min.
With `CCCCCCCC(=O)N[C@H](CN1CCCC1)[C@H](O)c1ccc2c(c1)OCCO2` [Eliglustat (D0), N-[2-(2,3-dihydro-1,4-benzodioxin-6-yl)-2(R)-hydroxy-1(R)-(pyrrolidin-1-ylmethyl)ethyl]octanamide, reference compound], the half-life at 0.25 μM was found to be 6.6 min in data set [2] (pH 7.4, Table 4a, 5 pmol/mL CYP2D6 supersomes, 0.25 μM test compound, 2 mM NADPH, 37° C., parent remaining by LC-MS/MS, read-out: t1/2 (minutes) Experiment 1); 5.1 min in data set [2] (pH 7.4, Table 4a, 5 pmol/mL CYP2D6 supersomes, 0.25 μM test compound, 2 mM NADPH, 37° C., read-out: t1/2 (minutes) Experiment 2); 6.7 ± 1.5 min in data set [2] (pH 7.4, Table 4a, average of Experiments 1 and 2, read-out: t1/2 (minutes) Ave ± SD); 9.7 min in data set [2] (pH 7.4, Table 4b, Human CYP2D6 Supersomes, read-out: t1/2 (minutes) Experiment 1); 6.3 min in data set [2] (pH 7.4, Table 4b, Human CYP2D6 Supersomes, read-out: t1/2 (minutes) Experiment 2); 8 ± 2.4 min in data set [2] (pH 7.4, Table 4b, average of Experiments 1 and 2, read-out: t1/2 (minutes) Ave ± SD).
As to “N-((1R,2R)-1-(2,3-dihydrobenzo[b][1,4]dioxin-6-yl)-1-hydroxy-3-(pyrrolidin-2-yl-3,3-d2)octan-d15-amide hemi-L-tartaric acid salt [Compound 171]”, in data set [1], the “t1/2 (minutes) Experiment 2” value was found to be 17.1 min, the “t1/2 (minutes) Experiment 1” value came to 12.3 min and the “t1/2 (minutes) Ave ± SD” value amounted to 14.7 ± 3.4 min. In addition, the “% Δ of t1/2 = [(deuterated species) − (nondeuterated species)](100)/(nondeuterated species)” value in data set [1] (versus Eliglustat (D0)) stood at 119%.
